The record followed here is article PMC5218480 (PLoS ONE, 2017).

The test system of this assay is MV-4-11 cells. Description: Gene expression microarray analysis (Affymetrix PrimeView) and GSEA. The settings on record: ProbeSet 11756954_s_at; LIST B. Type of assay: cell-based, human. Further details: RFU PODN (11730768_x_at) / Fold change /veh PODN (11730768_x_at) / RFU LINC00158 (11744669_a_at) / Fold change /veh LINC00158 (11744669_a_at) / RFU DUSP10 (11751237_a_at) / Fold change /veh DUSP10 (11751237_a_at) / RFU ID3 (11757404_x_at) / Fold change /veh ID3 (11757404_x_at) / RFU PLEKHG5 (11737974_s_at) / Fold change /veh PLEKHG5 (11737974_s_at) / RFU LRRC4B (11730491_at) / Fold change /veh LRRC4B (11730491_at) / RFU GIMAP4 (11747438_a_at) / Fold change /veh GIMAP4 (11747438_a_at) / RFU KRT8 (11758183_x_at) / Fold change /veh KRT8 (11758183_x_at) / RFU CNN1 (11734310_a_at) / Fold change /veh CNN1 (11734310_a_at) / RFU VPS37D (11726825_at) / Fold change /veh VPS37D (11726825_at) / RFU C10orf10 (11716522_x_at) / Fold change /veh C10orf10 (11716522_x_at) / RFU KIR2DL2 /// KIR2DL4 /// KIR2DL5A /// KIR2DL5B /// KIR2DS1 /// KIR2DS2 /// KIR2DS3 /// KIR2DS4 /// KIR3DL3 /// KIR3DL3 /// KIR3DS1 (11738374_at) / Fold change /veh KIR2DL2 /// KIR2DL4 /// KIR2DL5A /// KIR2DL5B /// KIR2DS1 /// KIR2DS2 /// KIR2DS3 /// KIR2DS4 /// KIR3DL3 /// KIR3DL3 /// KIR3DS1 (11738374_at) / RFU C1QL1 (11718748_at) / Fold change /veh C1QL1 (11718748_at) / RFU TMPRSS4 (11747572_a_at) / Fold change /veh TMPRSS4 (11747572_a_at) / RFU HAMP (11756126_x_at) / Fold change /veh HAMP (11756126_x_at) / RFU RNFT2 (11725882_a_at) / Fold change /veh RNFT2 (11725882_a_at) / RFU NR4A2 (11747474_a_at) / Fold change /veh NR4A2 (11747474_a_at) / RFU ABCC12 (11746883_a_at) / Fold change /veh ABCC12 (11746883_a_at) / RFU TMEM136 (11760407_x_at) / Fold change /veh TMEM136 (11760407_x_at) / RFU CLDN22 /// WWC2 (11732394_at) / Fold change /veh CLDN22 /// WWC2 (11732394_at) / RFU HLA-DPB1 (11760878_x_at) / Fold change /veh HLA-DPB1 (11760878_x_at) / RFU SPINT1 (11716480_a_at) / Fold change /veh SPINT1 (11716480_a_at) / RFU GAP43 (11754022_s_at) / Fold change /veh GAP43 (11754022_s_at) / RFU A4GNT (11735810_at) / Fold change /veh A4GNT (11735810_at) / RFU PRB3 (11715151_x_at) / Fold change /veh PRB3 (11715151_x_at) / RFU TUBB4B (11761932_at) / Fold change /veh TUBB4B (11761932_at) / RFU CAPN14 (11732068_a_at) / Fold change /veh CAPN14 (11732068_a_at) / RFU TMCC2 (11721928_a_at) / Fold change /veh TMCC2 (11721928_a_at) / RFU IRGQ (11745062_a_at) / Fold change /veh IRGQ (11745062_a_at) / RFU FAM174B (11720279_a_at) / Fold change /veh FAM174B (11720279_a_at) / RFU TMPRSS4 (11748680_a_at) / Fold change /veh TMPRSS4 (11748680_a_at) / RFU FAM212B (11763350_a_at) / Fold change /veh FAM212B (11763350_a_at) / RFU PLEKHG5 (11743358_a_at) / Fold change /veh PLEKHG5 (11743358_a_at) / RFU ZSCAN30 (11745921_a_at) / Fold change /veh ZSCAN30 (11745921_a_at) / RFU CMKLR1 (11741424_a_at) / Fold change /veh CMKLR1 (11741424_a_at) / RFU LOC101060620 /// MAPK8IP1 (11723275_at) / Fold change /veh LOC101060620 /// MAPK8IP1 (11723275_at) / RFU SPTSSB (11747773_x_at) / Fold change /veh SPTSSB (11747773_x_at) / RFU PRSS12 (11739890_at) / Fold change /veh PRSS12 (11739890_at) / RFU BIN1 (11741810_x_at) / Fold change /veh BIN1 (11741810_x_at) / RFU WNT11 (11732464_a_at) / Fold change /veh WNT11 (11732464_a_at) / RFU C10orf10 (11716521_a_at) / Fold change /veh C10orf10 (11716521_a_at) / RFU C5orf56 (11738089_at) / Fold change /veh C5orf56 (11738089_at) / RFU CYB561 (11721691_x_at) / Fold change /veh CYB561 (11721691_x_at) / RFU ANKRD19P (11752326_a_at) / Fold change /veh ANKRD19P (11752326_a_at) / RFU OR2T12 /// OR2T33 /// OR2T8 (11738714_s_at) / Fold change /veh OR2T12 /// OR2T33 /// OR2T8 (11738714_s_at) / RFU VCAN (11748164_a_at) / Fold change /veh VCAN (11748164_a_at) / RFU JSRP1 (11732532_at) / Fold change /veh JSRP1 (11732532_at) / RFU KRTAP10-11 (11738290_x_at) / Fold change /veh KRTAP10-11 (11738290_x_at) / RFU MYO3A (11730013_a_at) / Fold change /veh MYO3A (11730013_a_at) / RFU EBF3 (11725865_a_at) / Fold change /veh EBF3 (11725865_a_at) / RFU CAMK2N1 (11719241_x_at) / Fold change /veh CAMK2N1 (11719241_x_at) / RFU C5orf56 (11738088_a_at) / Fold change /veh C5orf56 (11738088_a_at) / RFU OLFML3 (11715873_a_at) / Fold change /veh OLFML3 (11715873_a_at) / RFU LOC100653217 /// NTM (11731650_a_at) / Fold change /veh LOC100653217 /// NTM (11731650_a_at) / RFU MAPK11 (11762145_a_at) / Fold change /veh MAPK11 (11762145_a_at) / RFU FIZ1 (11724087_x_at) / Fold change /veh FIZ1 (11724087_x_at) / RFU OASL (11726364_x_at) / Fold change /veh OASL (11726364_x_at) / RFU SOX15 (11748057_x_at) / Fold change /veh SOX15 (11748057_x_at) / RFU CD79A (11719716_a_at) / Fold change /veh CD79A (11719716_a_at) / RFU HIST1H1D (11736915_at) / Fold change /veh HIST1H1D (11736915_at) / RFU CASKIN2 (11723855_a_at) / Fold change /veh CASKIN2 (11723855_a_at) / RFU LOC730098 (11760151_x_at) / Fold change /veh LOC730098 (11760151_x_at) / RFU OR4N2 (11742367_at) / Fold change /veh OR4N2 (11742367_at) / RFU PRRT2 (11749266_a_at) / Fold change /veh PRRT2 (11749266_a_at) / RFU SNX32 (11753110_a_at) / Fold change /veh SNX32 (11753110_a_at) / RFU CDHR5 (11726645_a_at) / Fold change /veh CDHR5 (11726645_a_at) / RFU RCAN1 (11760418_a_at) / Fold change /veh RCAN1 (11760418_a_at) / RFU FAM167A (11723789_a_at) / Fold change /veh FAM167A (11723789_a_at) / RFU FAM26E (11764081_at) / Fold change /veh FAM26E (11764081_at) / RFU ISYNA1 (11749810_s_at) / Fold change /veh ISYNA1 (11749810_s_at) / RFU ACY1 (11761880_at) / Fold change /veh ACY1 (11761880_at) / RFU 11764098_at / Fold change /veh 11764098_at / RFU SAMD14 (11745864_x_at) / Fold change /veh SAMD14 (11745864_x_at) / RFU NPB (11741838_a_at) / Fold change /veh NPB (11741838_a_at) / RFU TMPRSS6 (11731388_a_at) / Fold change /veh TMPRSS6 (11731388_a_at) / RFU KRTAP10-2 (11738614_at) / Fold change /veh KRTAP10-2 (11738614_at) / RFU ARHGAP8 /// PRR5-ARHGAP8 (11727945_x_at) / Fold change /veh ARHGAP8 /// PRR5-ARHGAP8 (11727945_x_at) / RFU KRTAP5-7 /// NADSYN1 (11734609_at) / Fold change /veh KRTAP5-7 /// NADSYN1 (11734609_at) / RFU RASL12 (11751679_a_at) / Fold change /veh RASL12 (11751679_a_at) / RFU CDKN2B (11736163_a_at) / Fold change /veh CDKN2B (11736163_a_at) / RFU PRF1 (11729649_at) / Fold change /veh PRF1 (11729649_at) / RFU, ZNF638 /// ZNF638-IT1 / Fold change vs veh, ZNF638 /// ZNF638-IT1 / RFU, PANK3 / Fold change vs veh, PANK3 / RFU, SH3YL1 / Fold change vs veh, SH3YL1 / RFU, ZEB2 / Fold change vs veh, ZEB2 / RFU, NRIP1 / Fold change vs veh, NRIP1 / RFU, PTTG1IP / Fold change vs veh, PTTG1IP / RFU, CAPN2 / Fold change vs veh, CAPN2 / RFU, MED14 / Fold change vs veh, MED14 / RFU, SNORA58 / Fold change vs veh, SNORA58 / RFU, C1orf63 / Fold change vs veh, C1orf63 / RFU, LRRFIP1 / Fold change vs veh, LRRFIP1 / RFU, NDUFAF7 / Fold change vs veh, NDUFAF7 / RFU, SLC12A2 / Fold change vs veh, SLC12A2 / RFU, IBTK / Fold change vs veh, IBTK / RFU, ESF1 / Fold change vs veh, ESF1 / Fold change vs veh, TMEM50B / RFU, TAOK1 / Fold change vs veh, TAOK1 / RFU, ACBD3 / Fold change vs veh, ACBD3 / RFU, TMA16 / Fold change vs veh, TMA16 / RFU, RWDD3 / Fold change vs veh, RWDD3 / RFU, BCAT1 / Fold change vs veh, BCAT1 / RFU, EDEM3 / Fold change vs veh, EDEM3 / RFU, TMEM33 / Fold change vs veh, TMEM33 / RFU, WDR75 / Fold change vs veh, WDR75 / RFU, AHCTF1 / Fold change vs veh, AHCTF1 / RFU, TFRC / Fold change vs veh, TFRC / RFU, ZDHHC17 / Fold change vs veh, ZDHHC17 / RFU, NOM1 / Fold change vs veh, NOM1 / RFU, ARL8B / Fold change vs veh, ARL8B / RFU, ZBTB11 / Fold change vs veh, ZBTB11 / RFU, TAMM41 / Fold change vs veh, TAMM41 / RFU, KIAA1704 /// LOC100996395 / Fold change vs veh, KIAA1704 /// LOC100996395 / RFU, ING1 / Fold change vs veh, ING1 / RFU, TRMT61B / Fold change vs veh, TRMT61B / RFU, FUBP3 / Fold change vs veh, FUBP3 / RFU, TP53 / Fold change vs veh, TP53 / RFU, TNKS2 / Fold change vs veh, TNKS2 / RFU, ZFP14 / Fold change vs veh, ZFP14 / RFU, ACTR2 / Fold change vs veh, ACTR2 / RFU, PPP3R1 / Fold change vs veh, PPP3R1 / RFU, PIK3R1 / Fold change vs veh, PIK3R1 / RFU, HNRNPA1 / Fold change vs veh, HNRNPA1 / RFU, RNF170 / Fold change vs veh, RNF170 / RFU, ZNF28 / Fold change vs veh, ZNF28 / RFU, RNGTT / Fold change vs veh, RNGTT / RFU, OGT / Fold change vs veh, OGT / RFU, BRD1 / Fold change vs veh, BRD1 / RFU, MARS / Fold change vs veh, MARS / RFU, ZNF655 / Fold change vs veh, ZNF655 / RFU, FAHD1 / Fold change vs veh, FAHD1 / RFU, BDP1 / Fold change vs veh, BDP1 / RFU, LRRCC1 / Fold change vs veh, LRRCC1 / RFU, ARID1A / Fold change vs veh, ARID1A / RFU, ZNF146 / Fold change vs veh, ZNF146 / RFU, ZNF330 / Fold change vs veh, ZNF330 / RFU, GPN3 / Fold change vs veh, GPN3 / RFU, C9orf123 / Fold change vs veh, C9orf123 / RFU, N4BP2L2 / Fold change vs veh, N4BP2L2 / RFU, ARFIP1 / Fold change vs veh, ARFIP1 / RFU, FAM179B / Fold change vs veh, FAM179B / RFU, BCL10 / Fold change vs veh, BCL10 / RFU, UHRF1BP1L / Fold change vs veh, UHRF1BP1L / RFU, BET1 / Fold change vs veh, BET1 / RFU, CNOT2 / Fold change vs veh, CNOT2 / RFU, ZNF268 / Fold change vs veh, ZNF268 / Fold change vs veh, ZNF507 / RFU, DGCR2 / Fold change vs veh, DGCR2 / RFU, WDSUB1 / Fold change vs veh, WDSUB1 / Fold change vs veh, HSP90B1 /// MIR3652 / RFU, ADSS / Fold change vs veh, ADSS / RFU, GK / Fold change vs veh, GK / RFU, ZNF148 / Fold change vs veh, ZNF148 / RFU, TAF9 / Fold change vs veh, TAF9 / RFU, SLC1A5 / Fold change vs veh, SLC1A5 / RFU, SLMO2 / Fold change vs veh, SLMO2 / RFU, ABCC4 / Fold change vs veh, ABCC4 / RFU, LOC101060439 /// RAP1B / Fold change vs veh, LOC101060439 /// RAP1B / RFU, RFX7 / Fold change vs veh, RFX7 / RFU, GTPBP10 / Fold change vs veh, GTPBP10 / RFU, CNEP1R1 / Fold change vs veh, CNEP1R1 / RFU, BIVM-ERCC5 /// ERCC5 / Fold change vs veh, BIVM-ERCC5 /// ERCC5 / RFU, ILF3 / Fold change vs veh, ILF3 / RFU 11762660_at / Fold change /veh 11762660_at / RFU VCAN (11757783_s_at) / Fold change /veh VCAN (11757783_s_at) / RFU DDX43 (11728927_at) / Fold change /veh DDX43 (11728927_at) / RFU KRT8 (11758188_x_at) / Fold change /veh KRT8 (11758188_x_at) / RFU NKD1 (11759106_at) / Fold change /veh NKD1 (11759106_at) / RFU SRD5A1 (11742802_a_at) / Fold change /veh SRD5A1 (11742802_a_at) / RFU TPSAB1 /// TPSB2 (11721975_s_at) / Fold change /veh TPSAB1 /// TPSB2 (11721975_s_at) / RFU GSTM3 (11746129_a_at) / Fold change /veh GSTM3 (11746129_a_at) / RFU IL23R (11737362_x_at) / Fold change /veh IL23R (11737362_x_at) / RFU TMEM51 (11727254_a_at) / Fold change /veh TMEM51 (11727254_a_at) / RFU PIWIL2 (11732686_x_at) / Fold change /veh PIWIL2 (11732686_x_at) / RFU ORM1 (11744905_x_at) / Fold change /veh ORM1 (11744905_x_at) / RFU CCDC152 (11743942_at) / Fold change /veh CCDC152 (11743942_at) / RFU ECM1 (11717891_a_at) / Fold change /veh ECM1 (11717891_a_at) / RFU IL23R (11748794_a_at) / Fold change /veh IL23R (11748794_a_at) / RFU TNFAIP8L3 (11732012_x_at) / Fold change /veh TNFAIP8L3 (11732012_x_at) / RFU MBOAT4 (11741988_at) / Fold change /veh MBOAT4 (11741988_at) / RFU 11764193_at / Fold change /veh 11764193_at / RFU TMEM53 (11763286_at) / Fold change /veh TMEM53 (11763286_at) / RFU MAGEB2 (11727129_at) / Fold change /veh MAGEB2 (11727129_at) / RFU TMEM200A (11744735_a_at) / Fold change /veh TMEM200A (11744735_a_at) / RFU CCDC152 (11751479_a_at) / Fold change /veh CCDC152 (11751479_a_at) / RFU FAM211A (11726209_a_at) / Fold change /veh FAM211A (11726209_a_at) / RFU RGS16 (11746705_a_at) / Fold change /veh RGS16 (11746705_a_at) / RFU VCAN (11755009_s_at) / Fold change /veh VCAN (11755009_s_at) / RFU RHOB (11743442_s_at) / Fold change /veh RHOB (11743442_s_at) / RFU RGS16 (11720943_a_at) / Fold change /veh RGS16 (11720943_a_at) / RFU RGS16 (11720944_at) / Fold change /veh RGS16 (11720944_at) / RFU, VPS4B / Fold change vs veh, VPS4B / RFU, CREB1 / Fold change vs veh, CREB1 / RFU, DNAJC13 / Fold change vs veh, DNAJC13 / RFU, GNAQ / Fold change vs veh, GNAQ / RFU, CDK5R1 / Fold change vs veh, CDK5R1 / RFU, ZRANB3 / Fold change vs veh, ZRANB3 / RFU, CUL4A / Fold change vs veh, CUL4A / RFU, CCNY / Fold change vs veh, CCNY / RFU, UFL1 / Fold change vs veh, UFL1 / RFU, COG3 / Fold change vs veh, COG3 / RFU, DIAPH2 / Fold change vs veh, DIAPH2 / RFU, SKA2 / Fold change vs veh, SKA2 / RFU, AFF3 / Fold change vs veh, AFF3 / RFU, LMF1 / Fold change vs veh, LMF1 / RFU, IPO11 / Fold change vs veh, IPO11 / RFU, DFFB / Fold change vs veh, DFFB / RFU, FOXP1 / Fold change vs veh, FOXP1 / RFU, CARD8 / Fold change vs veh, CARD8 / RFU, STRN3 / Fold change vs veh, STRN3 / RFU, ADK / Fold change vs veh, ADK / RFU, RASSF2 / Fold change vs veh, RASSF2 / RFU, WIPF1 / Fold change vs veh, WIPF1 / RFU, LARP1B / Fold change vs veh, LARP1B / RFU, RASA1 / Fold change vs veh, RASA1 / RFU, RB1 / Fold change vs veh, RB1 / RFU, PPFIA1 / Fold change vs veh, PPFIA1 / RFU, MAT2A / Fold change vs veh, MAT2A / RFU, CCT5 / Fold change vs veh, CCT5 / RFU, WDR92 / Fold change vs veh, WDR92 / RFU, CUX1 / Fold change vs veh, CUX1 / RFU, TTC7A / Fold change vs veh, TTC7A / RFU, TMEM135 / Fold change vs veh, TMEM135 / RFU, DEPTOR / Fold change vs veh, DEPTOR / RFU, CPM / Fold change vs veh, CPM / RFU, DNAJB6 / Fold change vs veh, DNAJB6 / RFU, CACNA2D3 / Fold change vs veh, CACNA2D3 / RFU, DTX4 / Fold change vs veh, DTX4 / RFU, TFCP2 / Fold change vs veh, TFCP2 / RFU, GMCL1 /// GMCL1P1 / Fold change vs veh, GMCL1 /// GMCL1P1 / RFU, AEBP2 / Fold change vs veh, AEBP2 / RFU, SNHG1 /// SNORD22 /// SNORD25 /// SNORD26 /// SNORD27 /// SNORD28 /// SNORD29 /// SNORD31 / Fold change vs veh, SNHG1 /// SNORD22 /// SNORD25 /// SNORD26 /// SNORD27 /// SNORD28 /// SNORD29 /// SNORD31 / Fold change (Aza/veh), C12orf56 (ProbeSet 11735607_a_at) / Fold change (ACY-1035/veh), C12orf56 (ProbeSet 11735607_a_at) / Fold change (Aza/veh), FGFR1OP (ProbeSet 11751329_s_at) / Fold change (ACY-1035/veh), FGFR1OP (ProbeSet 11751329_s_at) / Fold change (Aza/veh), VPS36 (ProbeSet 11739960_a_at) / Fold change (ACY-1035/veh), VPS36 (ProbeSet 11739960_a_at) / RFU SYPL1 (11715823_x_at) / Fold change /veh SYPL1 (11715823_x_at) / RFU IGFBP7 (11715501_s_at) / Fold change /veh IGFBP7 (11715501_s_at) / RFU REEP3 (11722064_at) / Fold change /veh REEP3 (11722064_at) / RFU IGLL1 (11728026_x_at) / Fold change /veh IGLL1 (11728026_x_at): dose or concentration left out as unconfirmed.

On to `Nc1ncn([C@@H]2O[C@H](CO)[C@@H](O)[C@H]2O)c(=O)n1` [azacitidine], for which the “RFU, ZEB2” value is 1324.44 RFU.
